From ChEMBL document CHEMBL1142450, “3-(Imidazolyl methyl)-3-aza-bicyclo[3.1.0]hexan-6-yl)methyl ethers: a novel series of mGluR2 positive allosteric modulators” (Bioorg Med Chem Lett, 2008)

Experiments:
Format in all cases: ADME, organism-based
[1] = Oral bioavailability in Sprague-Dawley rat at 5 mg/kg; conditions: in vivo
[2] = Fraction absorbed in Sprague-Dawley rat at 5 mg/kg, po; design: dose 5 mg/kg, route oral; conditions: in vivo, read-out: Fabs
[3] = Ratio of drug level in brain to plasma in Sprague-Dawley rat at 10 mg/kg, sc; design: dose 10 mg/kg, route subcutaneous; conditions: brain and plasma, read-out: BPR

Row | bioavailability [1] [%] | Fa [2] [%] | Kp [3] | SMILES
1 | 79 | 84 | – | Cn1c(CN2C[C@@H]3C(COc4cccc(Cl)c4)[C@@H]3C2)nc2ncccc21 (stereo partly drawn)
2 | < 2 | 5 | 2 | Cn1c(CN2C[C@@H]3C(COc4ccccc4)[C@@H]3C2)nc2ccccc21 (stereo partly drawn)
3 | 20 | 72 | – | Cn1c(CN2C[C@@H]3C(COc4ccc(Cl)cn4)[C@@H]3C2)nc2ccccc21 (stereo partly drawn)
4 | 27 | – | – | Cn1c(CN2C[C@@H]3C(COc4ccc(C(F)(F)F)cn4)[C@@H]3C2)nc2ccccc21 (stereo partly drawn)
